As usually defined, the IC50 is the midpoint of a concentration-inhibition curve.

The experiment deals with H3K27 methylation in G401 cell. In words: ELISA (H3K27 methylation) assay. Type of experiment: cell-based. The settings on record: Homo sapiens, G-401; ELISA Qualified assay (H3K27 methylation); read-out: (c) IC50 (μM), ELISA Qualified. From the text:
ELISA (H3K27 Methylation) Assay
Regarding `CN(C)Cc1ccc(-c2cnc(NCc3cccc4c3CCO4)n3cnnc23)cc1` [Example 11, N-((2,3-dihydrobenzofuran-4-yl)methyl)-8-(4-((dimethylamino)methyl)phenyl)-[1,2,4]triazolo[4,3-c]pyrimidin-5-amine], the concentration for half-maximal inhibition (IC50) is 0.0144 µM.
Consider `CS(=O)(=O)c1ccc(-c2cnc(NCc3cccc4c3CCO4)n3cnnc23)cc1` [Example 12, N-((2,3-dihydrobenzofuran-4-yl)methyl)-8-(4-(methylsulfonyl)phenyl)-[1,2,4]triazolo[4,3-c]pyrimidin-5-amine], for which the 50% inhibitory concentration (IC50) came to 0.0176 µM.
With `c1ccc(-c2cnc(NCc3cccc4c3CCO4)n3cnnc23)cc1` [Example 13, N-((2,3-dihydrobenzofuran-4-yl)methyl)-8-phenyl-[1,2,4]triazolo[4,3-c]pyrimidin-5-amine] the figure was 0.139 µM; with `CC(c1ccc(-c2cnc(NCc3cccc4c3CCO4)n3cnnc23)cc1)N1CCCC1` (stereo not shown) [Example 14, N-((2,3-dihydrobenzofuran-4-yl)methyl)-8-(4-(1-(pyrrolidin-1-yl)ethyl)phenyl)-[1,2,4]triazolo[4,3-c]pyrimidin-5-amine], 0.0274 µM.
Consider `CN(C)S(=O)(=O)c1ccc(-c2cnc(NCc3cccc4c3CCO4)n3cnnc23)cc1` [Example 15, 4-(5-(((2,3-dihydrobenzofuran-4-yl)methyl)amino)-[1,2,4]triazolo[4,3-c]pyrimidin-8-yl)-N,N-dimethylbenzenesulfonamide], for which the half-maximal inhibitory concentration (IC50) was 0.0198 µM.
In the case of `c1cncc(-c2cnc(NCc3cccc4c3CCO4)n3cnnc23)c1` [Example 16, N-((2,3-dihydrobenzofuran-4-yl)methyl)-8-(pyridin-3-yl)-[1,2,4]triazolo[4,3-c]pyrimidin-5-amine], the concentration for half-maximal inhibition (IC50) worked out at 0.0604 µM.
Consider `CS(=O)(=O)Nc1ccc(-c2cnc(NCc3cccc4c3CCO4)n3cnnc23)cc1` [Example 19, N-(4-(5-(((2,3-dihydrobenzofuran-4-yl)methyl)amino)-[1,2,4]triazolo[4,3-c]pyrimidin-8-yl)phenyl)methanesulfonamide], for which the 50% inhibitory concentration (IC50) came to 0.0401 µM.
For `CN1CCN(c2ccc(-c3cnc(NCc4cccc5c4CCO5)n4cnnc34)cn2)CC1` [Example 20, N-((2,3-dihydrobenzofuran-4-yl)methyl)-8-(6-(4-methylpiperazin-1-yl)pyridin-3-yl)-[1,2,4]triazolo[4,3-c]pyrimidin-5-amine], the half-inhibitory concentration (IC50) was found to be 0.0783 µM.
In the case of `COc1ccc(-c2cnc(NCc3cccc4c3CCO4)n3cnnc23)cn1` [Example 21, N-((2,3-dihydrobenzofuran-4-yl)methyl)-8-(6-methoxypyridin-3-yl)-[1,2,4]triazolo[4,3-c]pyrimidin-5-amine], the 50% inhibitory concentration (IC50) is 0.15 µM.
With `CN(C)Cc1ccc(-c2cnc(NCc3c(F)ccc4c3CCO4)n3cnnc23)cc1` [Example 23, 8-(4-((dimethylamino)methyl)phenyl)-N-((5-fluoro-2,3-dihydrobenzofuran-4-yl)methyl)-[1,2,4]triazolo[4,3-c]pyrimidin-5-amine], the IC50 is 0.0424 µM.
`Cc1nn(C)c(C)c1-c1cnc(NCc2cccc3c2CCO3)n2cnnc12` [Example 24, N-((2,3-dihydrobenzofuran-4-yl)methyl)-8-(1,3,5-trimethyl-1H-pyrazol-4-yl)-[1,2,4]triazolo[4,3-c]pyrimidin-5-amine]: the half-maximal inhibitory concentration (IC50) is 0.162 µM.
Take `Cn1cc(-c2cnc(NCc3cccc4c3CCO4)n3cnnc23)cn1` [Example 25, N-((2,3-dihydrobenzofuran-4-yl)methyl)-8-(1-methyl-1H-pyrazol-4-yl)-[1,2,4]triazolo[4,3-c]pyrimidin-5-amine]: the IC50 turned out to be 0.406 µM.
`CS(=O)(=O)c1ccc(-c2cnc(NCc3cccc4c3CCO4)n3cnnc23)c(F)c1` [Example 26, N-((2,3-dihydrobenzofuran-4-yl)methyl)-8-(2-fluoro-4-(methylsulfonyl)phenyl)-[1,2,4]triazolo[4,3-c]pyrimidin-5-amine]: the concentration for half-maximal inhibition (IC50) worked out at 0.0448 µM.
As for `CS(=O)(=O)c1cccc(-c2cnc(NCc3cccc4c3CCO4)n3cnnc23)c1` [Example 27, N-((2,3-dihydrobenzofuran-4-yl)methyl)-8-(3-(methylsulfonyl)phenyl)-[1,2,4]triazolo[4,3-c]pyrimidin-5-amine], the IC50 was determined as 0.365 µM.
In the case of `CS(=O)(=O)c1ccc(-c2cnc(NCc3cccc4c3CCO4)n3cnnc23)cn1` [Example 28, N-((2,3-dihydrobenzofuran-4-yl)methyl)-8-(6-(methylsulfonyl)pyridin-3-yl)-[1,2,4]triazolo[4,3-c]pyrimidin-5-amine], the IC50 amounted to 0.415 µM.
`O=S(=O)(c1ccc(-c2cnc(NCc3cccc4c3CCO4)n3cnnc23)cc1)C1CCNCC1` [Example 29, N-((2,3-dihydrobenzofuran-4-yl)methyl)-8-(4-(piperidin-4-ylsulfonyl)phenyl)-[1,2,4]triazolo[4,3-c]pyrimidin-5-amine]: the IC50 is 0.214 µM.
`Cc1nn(C)cc1-c1cnc(NCc2cccc3c2CCO3)n2cnnc12` [Example 30, N-((2,3-dihydrobenzofuran-4-yl)methyl)-8-(1,3-dimethyl-1H-pyrazol-4-yl)-[1,2,4]triazolo[4,3-c]pyrimidin-5-amine]: the IC50 amounted to 0.069 µM.
The value for `Fc1ccccc1-c1cnc(NCc2cccc3c2CCO3)n2cnnc12` [Example 31, N-((2,3-dihydrobenzofuran-4-yl)methyl)-8-(2-fluorophenyl)-[1,2,4]triazolo[4,3-c]pyrimidin-5-amine] was 0.0298 µM; that for `Clc1ccccc1-c1cnc(NCc2cccc3c2CCO3)n2cnnc12` [Example 32, 8-(2-chlorophenyl)-N-((2,3-dihydrobenzofuran-4-yl)methyl)-[1,2,4]triazolo[4,3-c]pyrimidin-5-amine] was 0.115 µM.
Consider `CS(=O)(=O)Nc1ccc(-c2cnc(NCc3cccc4c3CCO4)n3cnnc23)cc1F` [Example 33, N-(4-(5-(((2,3-dihydrobenzofuran-4-yl)methyl)amino)-[1,2,4]triazolo[4,3-c]pyrimidin-8-yl)-2-fluorophenyl)methanesulfonamide], for which the IC50 turned out to be 0.297 µM.
On to `OCCn1cc(-c2cnc(NCc3cccc4c3CCO4)n3cnnc23)cn1` [Example 34, 2-(4-(5-(((2,3-dihydrobenzofuran-4-yl)methyl)amino)-[1,2,4]trizaolo[4,3-c]pyrimidin-8-yl)-1H-pyrazol-1-yl)ethanol], for which the IC50 was 1.95 µM.
In the case of `CN(C)CCc1ccc(-c2cnc(NCc3cccc4c3CCO4)n3cnnc23)cc1` [Example 35, N-((2,3-dihydrobenzofuran-4-yl)methyl)-8-(4-(2-(dimethylamino)ethyl)phenyl)-[1,2,4]triazolo[4,3-c]pyrimidin-5-amine], the IC50 was determined as 0.0334 µM.
The value for `Cc1cc(-c2cnc(NCc3cccc4c3CCO4)n3cnnc23)cnc1N1CCN(C)CC1` [Example 36, N-((2,3-dihydrobenzofuran-4-yl)methyl)-8-(5-methyl-6-(4-methylpiperazin-1-yl)pyridin-3-yl)-[1,2,4]triazolo[4,3-c]pyrimidin-5-amine] was 0.0683 µM; that for `CS(=O)(=O)c1ccc(-c2cnc(NCc3c(F)ccc4c3CCO4)n3cnnc23)cc1` [Example 37, N-((5-fluoro-2,3-dihydrobenzofuran-4-yl)methyl)-8-(4-(methylsulfonyl)phenyl)-[1,2,4]triazolo[4,3-c]pyrimidin-5-amine] was 0.0134 µM; that for `OCCOc1ccc(-c2cnc(NCc3cccc4c3CCO4)n3cnnc23)cc1` [Example 38, 2-(4-(5-(((2,3-dihydrobenzofuran-4-yl)methyl)amino)-[1,2,4]triazolo[4,3-c]pyrimidin-8-yl)phenoxy)ethanol] was 0.202 µM.
The value for `CS(=O)(=O)Nc1ccc(-c2cnc(NCc3c(F)ccc4c3CCO4)n3cnnc23)cc1F` [Example 39, N-(2-fluoro-4-(5-(((5-fluoro-2,3-dihydrobenzofuran-4-yl)methyl)amino)-[1,2,4]triazolo[4,3-c]pyrimidin-8-yl)phenyl)methanesulfonamide] was 0.0227 µM.
The value for `O=S(=O)(NCCO)c1ccc(-c2cnc(NCc3cccc4c3CCO4)n3cnnc23)cc1` [Example 40] was 1.34 µM.
In the case of `O=C(c1ccc(-c2cnc(NCc3cccc4c3CCO4)n3cnnc23)cc1)N1CCNCC1` [Example 41, (4-(5-(((2,3-dihydrobenzofuran-4-yl)methyl)amino)-[1,2,4]triazolo[4,3-c]pyrimidin-8-yl)phenyl)(piperazin-1-yl)methanone], the 50% inhibitory concentration (IC50) came to 0.375 µM.
`CN(C)C(=O)c1ccc(-c2cnc(NCc3cccc4c3CCO4)n3cnnc23)cc1` [Example 42, 4-(5-(((2,3-dihydrobenzofuran-4-yl)methyl)amino)-[1,2,4]triazolo[4,3-c]pyrimidin-8-yl)-N,N-dimethylbenzamide]: the half-maximal inhibitory concentration (IC50) worked out at 0.22 µM.
On to `CN(C)C(=O)c1cccc(-c2cnc(NCc3cccc4c3CCO4)n3cnnc23)c1` [Example 43, 3-(5-(((2,3-dihydrobenzofuran-4-yl)methyl)amino)-[1,2,4]triazolo[4,3-c]pyrimidin-8-yl)-N,N-dimethylbenzamide], for which the IC50 came out at 0.247 µM.
Regarding `Fc1ccc2c(c1CNc1ncc(-c3cccnc3)c3nncn13)CCO2` [Example 44, N-((5-fluoro-2,3-dihydrobenzofuran-4-yl)methyl)-8-(pyridin-3-yl)-[1,2,4]triazolo[4,3-c]pyrimidin-5-amine], the concentration for half-maximal inhibition (IC50) was found to be 0.0097 µM.
With `Fc1ccc2c(c1CNc1ncc(-c3ccncc3)c3nncn13)CCO2` [Example 45, N-((5-fluoro-2,3-dihydrobenzofuran-4-yl)methyl)-8-(pyridin-4-yl)-[1,2,4]triazolo[4,3-c]pyrimidin-5-amine] the figure was 0.0086 µM; with `CC(c1ccc(-c2cnc(NCc3c(F)ccc4c3CCO4)n3cnnc23)cc1)N1CCCC1` (stereo not shown) [Example 46, N-((5-fluoro-2,3-dihydrobenzofuran-4-yl)methyl)-8-(4-(1-(pyrrolidin-1-yl)ethyl)phenyl)-[1,2,4]triazolo[4,3-c]pyrimidin-5-amine], 0.0048 µM.
With `Fc1ccncc1-c1cnc(NCc2c(F)ccc3c2CCO3)n2cnnc12` [Example 47, N-((5-fluoro-2,3-dihydrobenzofuran-4-yl)methyl)-8-(4-fluoropyridin-3-yl)-[1,2,4]-triazolo[4,3-c]pyrimidin-5-amine] the figure was 0.0103 µM.

The record behind these values is patent US11207325B2, “Triazolopyrimidine compounds and uses thereof” (Novartis AG, priority 2014, dated 2021).
